Reference: patent publication US20170334877A1, “REVAPRAZAN HYDROCHLORIDE POLYMORPHS AND PREPARATION METHOD THEREFOR” (JIANGSU TASLY DIYI PHARMACEUTICAL CO., LTD., priority 2014, published 2017)
Counter-ions that a name gives are not always drawn.

Key:
Assay type in all cases: physicochemical
[1] = Light illumination test (intense light, 4500±500 Lx); conditions: for Stability (conclusion in words): intense light illumination, no obvious changes in appearance color, loss on drying, purity, relevant substances; for Appearance color / Loss on drying (%) / Purity (%) / Relevant substances: light 4500±500 Lx; for Loss on drying (%) / Purity (%) / Relevant substances: hydrochloride
Description: Revaprazan hydrochloride crystalline form I is irradiated under such a condition that the light intensity is 4500±500 Lx, and is sampled on the 5th day and 10th day for detection, and the results are shown in Table 1. Revaprazan hydrochloride crystalline form II is irradiated under the condition that the light intensity is 4500±500Lx, and is sampled on the 5th day and 10th day for detection. Revaprazan hydrochloride polymorph III is irradiated under such a condition that the light intensity is 4500±500Lx, and is sampled on the 5th day and 10th day for detection. Revaprazan hydrochloride […] is irradiated under such a condition that the light intensity is 4500±500Lx, and is sampled on the 5th day and the 10th day for detection. Revaprazan hydrochloride crystalline form V is irradiated under the light intensity condition of 4500±500Lx; and is sampled on the 5th day and 10th day for detection.

[2] = High temperature test (60° C. incubator); conditions: for Appearance color / Loss on drying (%) / Purity (%) / Relevant substances: 60° C., hydrochloride; for Stability (conclusion in words): high temperature, no obvious changes in appearance color, loss on drying, purity, relevant substances
Procedure: Revaprazan hydrochloride crystalline form I is placed in a 60° C. incubator, and is sampled on the 5th day and 10th day for detection, and the results are shown in Table 2. Revaprazan hydrochloride crystalline form II is placed in a 60° C. incubator, and is sampled on the 5th day and 10th day for detection, and the results are shown in Table 6. Revaprazan hydrochloride polymorph III is placed in an incubator of 60° C., and is sampled on the 5th day and the 10th day for detection. Revaprazan hydrochloride crystalline form IV is placed in an incubator of 60° C., and is sampled on the 5th day and the 10th day for detection. Revaprazan hydrochloride crystal form 4 is placed in an incubator of 60° C.; and is sampled on the 5th day and the 10th day for detection, and the results are shown in Table 23.

[3] = High humidity test (25° C., relative humidity 75±5%); conditions: for Appearance color / Purity (%) / Weight gain upon moisture absorption (%) / Relevant substances: 25° C., RH 75±5%; for Weight gain upon moisture absorption (in words): high humidity condition; for Stability (conclusion in words): high humidity, no obvious changes in appearance color, purity, relevant substances
Procedure: Revaprazan hydrochloride crystalline form I is placed in an incubator of 25° C. (relative humidity of 75±5%), and is sampled on the 5th day and 10th day for detection. Revaprazan hydrochloride crystalline form II is placed in an incubator of 25° C. (relative humidity of 75±5%), and is sampled on the 5th day and 10th day for detection. Revaprazan hydrochloride polymorph III is placed in an incubator of 25° C. (relative humidity of 75±5%), and is sampled on the 5th day and the 10th day for detection. Revaprazan hydrochloride crystalline form IV is placed in an incubator of 25° C. Revaprazan hydrochloride crystal form 4 is placed in an incubator of 25° C. (the relative humidity is 75±5%), and is sampled on the 5th day and the 10th day for detection.

[4] = Accelerated test (40±2° C., relative humidity 75±5%, 6 months, sealed polyethylene film bag); conditions: for Appearance color / Purity (%) / Relevant substances: 40±2° C., RH 75±5%; for Purity (%) / Relevant substances: hydrochloride; for Stability (conclusion in words): accelerated test, no obvious changes in appearance color, purity, relevant substances
Procedure: Revaprazan hydrochloride crystalline form I is sealed in a polyethylene film bag, is placed for 6 months under the conditions that the temperature is 40±2° C. and the relative humidity is 75±5%, and is respectively sampled at the end of the 1st Month, the 2nd Month, the 3rd Month and the 6^thMonth for detection; and the results are shown in Table 4. Revaprazan hydrochloride crystalline form II is sealed in a polyethylene film bag and is placed for 6 months under the conditions that the temperature is 40±2° C. and the relative humidity is 75±5%, and is respectively sampled at the end of the 1st Month, the 2nd Month, the 3rd Month and the 6th Month for detection; and the results are shown in Table 8. Revaprazan hydrochloride crystalline form III is sealed in a polyethylene film bag, is placed for 6 months under the conditions that the temperature is 40±2° C. and the relative humidity is 75±5%, and is sampled at the end of the 1st Month, the 2nd Month, the 3rd Month and the 6th Month for detection. Revaprazan hydrochloride crystalline form IV is sealed in a polyethylene film bag, is placed for 6 months under the conditions that the temperature is 40±2° C. and the relative humidity is 75±5%, and is sampled at the end of the 1st Month, the 2nd Month, the 3rd Month and the 6th Month for detection. Revaprazan hydrochloride crystalline form V is sealed in a polyethylene film bag and is placed for 6 months under the condition that the temperature is 40±2° C. and the relative humidity is 75±5%, and is sampled at the end of the 1st month, the 2nd month, the 3rd month and the 6th month for detection, and the results are shown in Table 20.

[5] = 5th day, listed as revaprazan hydrochloride polymorph III
[6] = 10th day, listed as revaprazan hydrochloride polymorph III
[7] = Day 0, listed as revaprazan hydrochloride polymorph III

## Cc1nc(Nc2ccc(F)cc2)nc(N2CCc3ccccc3C2C)c1C (single isomer, unassigned) [revaprazan hydrochloride crystalline form V]
[1]
  Stability (conclusion in words): stable
[1]; 5th day
  Appearance color: White powder
  Loss on drying (%): 0.27%
  Purity (%): 99.95%
  Relevant substances: Undetected
[1]; 10th day
  Appearance color: White powder
  Loss on drying (%): 0.30%
  Purity (%): 99.95%
  Relevant substances: Undetected
[1]; Day 0
  Appearance color: White powder
  Loss on drying (%): 0.24%
  Purity (%): 99.94%
  Relevant substances: Undetected
[2]; 5th day
  Appearance color: White powder
  Loss on drying (%): 0.30%
  Purity (%): 99.95%
  Relevant substances: Undetected
[2]; 10th day
  Appearance color: White powder
  Loss on drying (%): 0.32%
  Purity (%): 99.92%
  Relevant substances: Undetected
[2]; Day 0
  Appearance color: White powder
  Loss on drying (%): 0.29%
  Purity (%): 99.94%
  Relevant substances: Undetected
[2]
  Stability (conclusion in words): stable
[3]; 5th day
  Appearance color: White powder
[3]; 5th day, hydrochloride
  Purity (%): 99.94%
  Weight gain upon moisture absorption (%): 0.42%
[3]; 10th day
  Appearance color: White powder
[3]; 10th day, hydrochloride
  Purity (%): 99.96%
  Weight gain upon moisture absorption (%): 0.66%
[3]; Day 0
  Appearance color: White powder
  Weight gain upon moisture absorption (%): 0%
[3]; Day 0, hydrochloride
  Purity (%): 99.94%
[3]
  Weight gain upon moisture absorption (in words): slight weight gain
  Stability (conclusion in words): stable
[4]; 1st month
  Appearance color: White powder
  Purity (%): 99.98%
  Relevant substances: Undetected
[4]; 2nd month
  Appearance color: White powder
  Purity (%): 99.95%
  Relevant substances: Undetected
[4]; 3rd month
  Appearance color: White powder
  Purity (%): 99.97%
  Relevant substances: Undetected
[4]; 6th month
  Appearance color: White powder
  Purity (%): 99.94%
  Relevant substances: Undetected
[4]; Month 0
  Appearance color: White powder
  Purity (%): 99.94%
  Relevant substances: Undetected
[4]
  Stability (conclusion in words): stable

## Cc1nc(Nc2ccc(F)cc2)nc(N2CCc3ccccc3C2C)c1C (single isomer, unassigned) [revaprazan hydrochloride crystalline form III]
[1]
  Stability (conclusion in words): stable
[1]; 5th day
  Appearance color: White powder
[1]; [5]
  Loss on drying (%): 0.25%
  Purity (%): 99.92%
  Relevant substances: Undetected
[1]; 10th day
  Appearance color: White powder
[1]; [6]
  Loss on drying (%): 0.29%
  Purity (%): 99.95%
  Relevant substances: Undetected
[1]; Day 0
  Appearance color: White powder
[1]; [7]
  Loss on drying (%): 0.28%
  Purity (%): 99.95%
  Relevant substances: Undetected
[2]; [5]
  Appearance color: White powder
  Loss on drying (%): 0.26%
  Purity (%): 99.94%
  Relevant substances: Undetected
[2]; [6]
  Appearance color: White powder
  Loss on drying (%): 0.26%
  Purity (%): 99.92%
  Relevant substances: Undetected
[2]; [7]
  Appearance color: White powder
  Loss on drying (%): 0.22%
  Purity (%): 99.95%
  Relevant substances: Undetected
[2]
  Stability (conclusion in words): stable
[3]; 5th day
  Appearance color: White powder
[3]; 5th day, hydrochloride
  Purity (%): 99.92%
  Relevant substances: Undetected
  Weight gain upon moisture absorption (%): 0.47%
[3]; 10th day
  Appearance color: White powder
[3]; 10th day, hydrochloride
  Purity (%): 99.94%
  Relevant substances: Undetected
  Weight gain upon moisture absorption (%): 0.59%
[3]; Day 0
  Appearance color: White powder
  Weight gain upon moisture absorption (%): 0%
[3]; Day 0, hydrochloride
  Purity (%): 99.95%
  Relevant substances: Undetected
[3]
  Weight gain upon moisture absorption (in words): slight weight gain
  Stability (conclusion in words): stable
[4]; 1st month
  Appearance color: White powder
  Purity (%): 99.92%
  Relevant substances: Undetected
[4]; 2nd month
  Appearance color: White powder
  Purity (%): 99.91%
  Relevant substances: Undetected
[4]; 3rd month
  Appearance color: White powder
  Purity (%): 99.93%
  Relevant substances: Undetected
[4]; 6th month
  Appearance color: White powder
  Purity (%): 99.95%
  Relevant substances: Undetected
[4]; Month 0
  Appearance color: White powder
  Purity (%): 99.95%
  Relevant substances: Undetected
[4]
  Stability (conclusion in words): stable
